The structures appear in SMILES notation. Like-named read-outs stand apart in the source and are kept apart here.

The target in assay [1] is T1, EPAC1 (Homo sapiens, UniProt O95398).
T1 sequence (O95398 1-923): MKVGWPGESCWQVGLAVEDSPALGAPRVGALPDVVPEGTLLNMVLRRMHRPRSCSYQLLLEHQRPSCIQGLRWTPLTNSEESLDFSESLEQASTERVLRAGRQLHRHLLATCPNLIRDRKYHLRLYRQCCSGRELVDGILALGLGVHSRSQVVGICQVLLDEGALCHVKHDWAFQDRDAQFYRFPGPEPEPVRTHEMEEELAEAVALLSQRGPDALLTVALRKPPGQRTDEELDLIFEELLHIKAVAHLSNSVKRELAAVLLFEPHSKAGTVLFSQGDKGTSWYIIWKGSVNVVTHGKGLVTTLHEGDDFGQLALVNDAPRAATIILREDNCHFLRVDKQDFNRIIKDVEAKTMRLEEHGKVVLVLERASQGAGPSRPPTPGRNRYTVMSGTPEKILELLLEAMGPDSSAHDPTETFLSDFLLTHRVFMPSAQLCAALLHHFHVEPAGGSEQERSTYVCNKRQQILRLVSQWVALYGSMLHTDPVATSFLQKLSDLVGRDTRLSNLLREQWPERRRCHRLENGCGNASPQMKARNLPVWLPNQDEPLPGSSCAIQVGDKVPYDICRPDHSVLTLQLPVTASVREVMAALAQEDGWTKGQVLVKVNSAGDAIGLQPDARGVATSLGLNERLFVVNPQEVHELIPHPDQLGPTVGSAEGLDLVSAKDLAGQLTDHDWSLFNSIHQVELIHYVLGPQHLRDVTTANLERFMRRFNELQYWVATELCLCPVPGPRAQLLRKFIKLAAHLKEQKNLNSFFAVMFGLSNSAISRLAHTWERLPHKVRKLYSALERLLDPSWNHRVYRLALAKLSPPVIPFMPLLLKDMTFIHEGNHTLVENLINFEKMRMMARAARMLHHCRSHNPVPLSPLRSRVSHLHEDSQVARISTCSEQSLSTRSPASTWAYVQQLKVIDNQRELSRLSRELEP
The following applies: at 100 μM; cited from earlier work.

Assay [2] deals with EPAC2. The following applies: read-out: inhibition of cAMP-mediated EPAC2 GEF activity IC50; cited from earlier work.
Assay [3] concerns EPAC2. The following applies: read-out: EPAC2 inhibitory activity IC50; cited from earlier work.
Assay [4] concerns the target T1, EPAC1. The class given is biochemical. The following applies: for EPAC inhibitory activities (in words): Rap1b-bGDP exchange assay.

As to `Cc1cc(C)c(Nc2ccc(Cl)c(C(F)(F)F)c2)c(C)c1` [Compound 3], the “inhibition against EPAC1” value on EPAC1 [1] is listed as “no significant inhibition”. Further, the IC50 (as a rule, the concentration that gives 50% inhibition) was 1000 nM in the assay with EPAC2 [2] and 400 nM in the assay with EPAC2 [3].

`COc1ccc(C(=O)/C(C#N)=N/Nc2cc(Cl)cc(Cl)c2)cc1OC` [Compound 27]: on EPAC1 [4], the “EPAC inhibitory activities (in words)” value is listed as “complete loss of EPAC inhibitory activities”.

With `N#C/C(=N\Nc1cc(Cl)cc(Cl)c1)C(=O)c1ccc(-c2ccccc2)cc1` [Compound 26], the “EPAC inhibitory activities (in words)” value at EPAC1 [4] is reported as “complete loss of EPAC inhibitory activities”.

`CC(C)(C)c1ccc(C(=O)/C(C#N)=N/Nc2cc(Cl)cc(Cl)c2)cc1` [Compound 10, (E)-2-(4-(tert-Butyl)phenyl)-N-(3,5-dichlorophenyl)-2-oxoacetohydrazonoyl cyanide]: the “improvement on EPAC1 inhibitory activity compared to compound 6” value on EPAC1 [4] (ratio of IC50 values vs compound 6) was 2.5 fold.

Values taken from PMC5693616 (Bioorganic & medicinal chemistry letters, 2017).
